These results are taken from paper PMC7900114, “Three-dimensional structure of human cyclooxygenase (hCOX)-1” (Scientific Reports, 2021).

One experiment has as its target T1, oCOX-1 (Ovis aries, UniProt P05979).
T1 sequence (P05979 25-600): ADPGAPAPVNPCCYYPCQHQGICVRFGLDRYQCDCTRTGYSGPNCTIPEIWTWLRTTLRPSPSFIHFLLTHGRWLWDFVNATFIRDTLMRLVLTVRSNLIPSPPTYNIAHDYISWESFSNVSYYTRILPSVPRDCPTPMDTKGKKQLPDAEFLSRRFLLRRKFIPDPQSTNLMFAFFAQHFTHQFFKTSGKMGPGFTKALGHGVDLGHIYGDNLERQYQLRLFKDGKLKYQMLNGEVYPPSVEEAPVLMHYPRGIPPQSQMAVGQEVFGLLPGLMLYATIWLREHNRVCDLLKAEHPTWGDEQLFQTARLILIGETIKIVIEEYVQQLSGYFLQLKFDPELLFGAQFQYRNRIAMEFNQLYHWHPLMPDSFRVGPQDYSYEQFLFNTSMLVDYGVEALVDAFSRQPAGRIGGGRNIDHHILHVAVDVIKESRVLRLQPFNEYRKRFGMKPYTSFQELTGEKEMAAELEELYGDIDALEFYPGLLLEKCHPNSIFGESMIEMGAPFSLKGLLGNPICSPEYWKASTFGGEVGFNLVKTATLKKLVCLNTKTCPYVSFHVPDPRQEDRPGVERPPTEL
The settings on record: enzyme specific activity in the presence of arachidonic acid 100 µM and the inhibitor. As for the experimental part: (§1) Functional analysis of ovine and human COX-1 catalytic activity was determined by monitoring O2 consumption by using an Oxytherm electrode unit (Hansatech), in the presence of arachidonic acid and different inhibitors. The instrument is equipped with a Clark-type oxygen electrode to monitor the dissolved oxygen concentration in a sealed measurement chamber over the time. Oxygen consumption was measured at 37 °C directly in a 1000 µL reaction vessel. Briefly, it follows the description of a typical assay: Oxygraph buffer (the opportune volume is adjusted to 1000 µL of final volume according to the volume of the protein), 5 µM hemin (1 µL), 100 µM arachidonic acid (20 µL) and inhibitor (10 µL) at the opportune concentrations.
(§2) Oxygen consumption determination (μmol/ml O2) started after the addition of the ovine or human COX-1/Sf9 sonicated pellet (C = 2.6 mg/ml) to the mixture containing Oxygraph buffer, arachidonic acid and test compounds at the opportune concentrations. Assay mixture was allowed to equilibrate in the reaction vessel at 37 °C for several minutes until steady baseline was recorded. Uninfected Sf9 sonicated cells were used as a negative control. Stock solutions were prepared in a minimum volume of vehicle (DMSO).

The target in another experiment is hCOX-1 (Homo sapiens, UniProt P23219). As to conditions: enzyme specific activity in the presence of arachidonic acid 100 µM and the inhibitor. As for the experimental part:
as §1, §2

hCOX-1, sequence (P23219 24-599): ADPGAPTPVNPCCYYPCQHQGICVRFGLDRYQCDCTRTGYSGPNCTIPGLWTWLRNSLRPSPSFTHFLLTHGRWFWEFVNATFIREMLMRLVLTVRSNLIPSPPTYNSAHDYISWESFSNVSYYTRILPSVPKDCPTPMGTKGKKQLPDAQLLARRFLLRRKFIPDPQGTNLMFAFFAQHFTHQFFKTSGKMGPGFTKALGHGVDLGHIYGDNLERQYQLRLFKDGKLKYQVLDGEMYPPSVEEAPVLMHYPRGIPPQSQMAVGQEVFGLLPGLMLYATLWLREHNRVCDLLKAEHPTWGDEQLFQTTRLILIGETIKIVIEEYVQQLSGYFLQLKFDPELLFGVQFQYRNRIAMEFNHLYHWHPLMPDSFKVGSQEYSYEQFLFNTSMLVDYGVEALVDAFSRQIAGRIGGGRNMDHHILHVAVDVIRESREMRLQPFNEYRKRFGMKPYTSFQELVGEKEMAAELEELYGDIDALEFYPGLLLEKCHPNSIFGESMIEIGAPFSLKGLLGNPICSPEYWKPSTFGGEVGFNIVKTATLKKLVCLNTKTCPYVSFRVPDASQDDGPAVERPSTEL

Turning to `COc1ccc(-c2noc(CC(=O)O)c2-c2ccc(OC)cc2)cc1` [mofezolac], the “Specific activity oCOX-1” value on oCOX-1 turned out to be 3.5 µmol/min/mg. The “Specific activity hCOX-1” value at hCOX-1 was found to be 4.5 µmol/min/mg.
